From ChEMBL document CHEMBL1201862, “PubChem BioAssay data set” (2004) come the findings set out here.

Experiment [1] has as its system Candida albicans. The experiment in a line: growth inhibition of azole-resistant C. albicans, dose response, CaCi-8 strain, Alamar Blue, dry powder, set 3 (AID 488905). The class given is functional, organism-based.
Experiment [2] has as its system Candida albicans. As to the kind of experiment: reversal of fluconazole resistance in C. albicans, dose response, CaCi-2 strain, Alamar Blue, dry powder, set 3 (AID 488907). The format is functional, organism-based. (In general: Alamar Blue is a resazurin reagent that responds to reducing activity.)
For experiment [3], the target named is T1, CAAX prenyl protease 2 (Saccharomyces cerevisiae S288c, UniProt Q03530).
T1 sequence (Q03530 whole entry): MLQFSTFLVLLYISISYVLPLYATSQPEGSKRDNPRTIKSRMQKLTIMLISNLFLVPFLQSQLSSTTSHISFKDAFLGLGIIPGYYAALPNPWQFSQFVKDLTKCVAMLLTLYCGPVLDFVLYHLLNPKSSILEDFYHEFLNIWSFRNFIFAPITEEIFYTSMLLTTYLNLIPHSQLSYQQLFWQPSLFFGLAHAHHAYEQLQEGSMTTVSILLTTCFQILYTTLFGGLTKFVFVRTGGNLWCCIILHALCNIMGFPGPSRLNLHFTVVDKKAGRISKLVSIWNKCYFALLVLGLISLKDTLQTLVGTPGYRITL
The format is biochemical.

Experiment [4] concerns the target T1, CAAX prenyl protease 2. The experiment in a line: yeast Rce1 CaaX protease inhibitors, dose response, biochemical, plate reader, dry powder retest (AID 588851).

Calls of active or inactive are those of the source. Unless noted, no cut-off for these calls is given here.

As a reminder, the AC50 is the midpoint of the concentration-response curve, whichever way the signal moves. Take `COc1ccc(C(=O)N2CCN(c3ccccn3)CC2)cc1`: the AC50 in the experiment with Candida albicans [1] was 15.4 µM (active); in the experiment on Candida albicans [2] it was 0.484 µM (active).
Consider `Cc1cccc(-c2nnc(SCc3ccc(C#N)cc3)n2Cc2ccco2)c1`, for which the AC50 on CAAX prenyl protease 2 [3] is 0.963 µM (active); at CAAX prenyl protease 2 [4], 16.8 µM (active).
